We go through eleven compounds from paper PMC8412899 (ACS Omega, 2021).

MCL-1, sequence (Q07820 whole entry): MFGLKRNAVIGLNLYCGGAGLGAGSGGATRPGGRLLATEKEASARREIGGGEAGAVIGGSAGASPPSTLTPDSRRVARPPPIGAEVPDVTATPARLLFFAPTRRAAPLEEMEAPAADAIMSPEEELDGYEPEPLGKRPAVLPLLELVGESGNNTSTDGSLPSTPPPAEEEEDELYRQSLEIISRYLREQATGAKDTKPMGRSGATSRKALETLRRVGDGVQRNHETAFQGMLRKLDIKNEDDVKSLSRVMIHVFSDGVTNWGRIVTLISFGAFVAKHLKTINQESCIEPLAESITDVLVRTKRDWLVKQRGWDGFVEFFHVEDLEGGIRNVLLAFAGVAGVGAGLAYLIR

The first test addresses MCL-1 (Homo sapiens, UniProt Q07820). In words: FP. In kind it is binding. To be noted: FP MCL-1 Ki.
Compound `C=CCn1c(CC)c(-c2cccc(Cl)c2C)c2c(N[C@H](Cc3ccccc3)C(=O)O)ncnc21` (single isomer, unassigned) [Compound 3a, N-[(5Ra)-5-(3-Chloro-2-methylphenyl)-6-ethyl-7-(prop-2-en-1-yl)-7H-pyrrolo[2,3-d]pyrimidin-4-yl]-D-phenylalanine] registered a Ki of 18 µM.

As for `C=CCn1c(CC)c(-c2cccc(Cl)c2C)c2c(N[C@H](Cc3ccccc3)C(=O)O)ncnc21` (single isomer, unassigned) [Compound 3b, N-[(5Sa)-5-(3-Chloro-2-methylphenyl)-6-ethyl-7-(prop-2-en-1-yl)-7H-pyrrolo[2,3-d]pyrimidin-4-yl]-D-phenylalanine], the Ki was 9.1 µM.

As for `C=CCn1c(Br)c(-c2cccc(Cl)c2C)c2c(N[C@H](Cc3ccccc3)C(=O)O)ncnc21` (single isomer, unassigned) [Compound 4a, N-[6-Bromo-(5Sa)-5-(3-chloro-2-methylphenyl)-7-(prop-2-en-1-yl)-7H-pyrrolo[2,3-d]pyrimidin-4-yl]-D-phenylalanine], the Ki worked out at 2.5 µM.

In turn, `CCc1c(-c2cccc(Cl)c2C)c2c(N[C@H](Cc3ccccc3)C(=O)O)ncnc2n1CC(F)(F)F` (single isomer, unassigned) [Compound 5b, N-[(5Sa)-5-(3-Chloro-2-methylphenyl)-6-ethyl-7-(2,2,2-trifluoroethyl)-7H-pyrrolo[2,3-d]pyrimidin-4-yl]-D-phenylalanine] returned a Ki of 8.5 µM.

With `CC#CCn1c(CC)c(-c2cccc(Cl)c2C)c2c(N[C@H](Cc3ccccc3)C(=O)O)ncnc21` (single isomer, unassigned) [Compound 7a, N-[7-(But-2-yn-1-yl)-(5Ra)-5-(3-chloro-2-methylphenyl)-6-ethyl-7H-pyrrolo[2,3-d]pyrimidin-4-yl]-D-phenylalanine], affinity was put at a Ki of 5.9 µM.

Turning to `CC#CCn1c(CC)c(-c2cccc(Cl)c2C)c2c(N[C@H](Cc3ccccc3)C(=O)O)ncnc21` (single isomer, unassigned) [Compound 7b, N-[7-(But-2-yn-1-yl)-(5Sa)-5-(3-chloro-2-methylphenyl)-6-ethyl-7H-pyrrolo[2,3-d]pyrimidin-4-yl]-D-phenylalanine], the inhibition constant (Ki) stood at 0.33 µM.

Turning to `CCc1c(-c2cccc(Cl)c2C)c2c(N[C@H](Cc3ccccc3)C(=O)O)ncnc2n1Cc1ccccc1` (single isomer, unassigned) [Compound 8a, N-[7-Benzyl-(5Ra)-5-(3-chloro-2-methylphenyl)-6-ethyl-7H-pyrrolo[2,3-d]pyrimidin-4-yl]-D-phenylalanine], the inhibitory constant (Ki) came to 6.5 µM.

`CCc1c(-c2cccc(Cl)c2C)c2c(N[C@H](Cc3ccccc3)C(=O)O)ncnc2n1Cc1ccccc1` (single isomer, unassigned) [Compound 8b, N-[7-Benzyl-(5Sa)-5-(3-chloro-2-methylphenyl)-6-ethyl-7H-pyrrolo[2,3-d]pyrimidin-4-yl]-D-phenylalanine] yielded a Ki of 0.53 µM.

Still in this test, the particulars now being: less active form compared to more active isomer 3b.
For the compound `C=CCn1c(CC)c(-c2cccc(Cl)c2C)c2c(N[C@H](Cc3ccccc3)C(=O)O)ncnc21` (single isomer, unassigned) [Compound 3a, N-[(5Ra)-5-(3-Chloro-2-methylphenyl)-6-ethyl-7-(prop-2-en-1-yl)-7H-pyrrolo[2,3-d]pyrimidin-4-yl]-D-phenylalanine], the “fold less potent (FP affinity)” value stood at 2 fold.

The test is the same for the next values; noted with them: read-out: FP MCL-1 inhibition at 50 μM, @50 μM, highest tested dose.
As for `CCc1c(-c2cccc(Cl)c2C)c2c(N[C@H](Cc3ccccc3)C(=O)O)ncnc2n1C` (single isomer, unassigned) [Compound 2a, N-[(5Ra)-5-(3-Chloro-2-methylphenyl)-6-ethyl-7-methyl-7H-pyrrolo[2,3-d]pyrimidin-4-yl]-D-phenylalanine], the inhibition at 50 µM stood at 65%.

With `C=CCn1c(Br)c(-c2cccc(Cl)c2C)c2c(N[C@H](Cc3ccccc3)C(=O)O)ncnc21` (single isomer, unassigned) [Compound 4b, N-[6-Bromo-(5Ra)-5-(3-chloro-2-methylphenyl)-7-(prop-2-en-1-yl)-7H-pyrrolo[2,3-d]pyrimidin-4-yl]-D-phenylalanine], the inhibition at 50 µM came to 66%.

For the compound `CCc1c(-c2cccc(Cl)c2C)c2c(N[C@H](Cc3ccccc3)C(=O)O)ncnc2n1CC(F)(F)F` (single isomer, unassigned) [Compound 5a, N-[(5Ra)-5-(3-Chloro-2-methylphenyl)-6-ethyl-7-(2,2,2-trifluoroethyl)-7H-pyrrolo[2,3-d]pyrimidin-4-yl]-D-phenylalanine], the inhibition at 50 µM was found to be 63%.

The Ki is the dissociation constant of the complex between target and ligand, obtained from inhibition or displacement. A high value points to weaker binding. One may read the inhibition as the change of the read-out against control, counted positive when it falls.
